# Laboratory results as given in ChEMBL document CHEMBL2163195, “Development of potent carbonic anhydrase inhibitors incorporating both sulfonamide and sulfamide groups” (J Med Chem, 2012).
# Biological target: Carbonic anhydrase 9 (Homo sapiens, UniProt Q16790)
row,SMILES,Ki
1,NS(=O)(=O)NCc1ccc(S(N)(=O)=O)cc1,65 nM
2,NS(=O)(=O)Nc1ccc(S(=O)(=O)Nc2ccc(S(N)(=O)=O)cc2)cc1,27 nM
3,NS(=O)(=O)Nc1ccc(S(N)(=O)=O)cc1,64 nM
4,NS(=O)(=O)Nc1ccc(S(=O)(=O)NCCc2ccc(S(N)(=O)=O)cc2)cc1,65 nM
5,NS(=O)(=O)Nc1ccc(S(=O)(=O)NCc2ccc(S(N)(=O)=O)cc2)cc1,35 nM
6,NS(=O)(=O)Nc1ccc(S(=O)(=O)Nc2ccc(C(=O)NCCc3ccc(S(N)(=O)=O)cc3)cc2)cc1,0.4 nM
7,NS(=O)(=O)Nc1ccc(S(=O)(=O)Nc2ccc(C(=O)O)cc2)cc1,57 nM
8,CC(=O)Nc1ccc(S(=O)(=O)Nc2ccc(C(=O)NCCc3ccc(S(N)(=O)=O)cc3)cc2)cc1,4.5 nM
9,NS(=O)(=O)NCCc1ccc(S(N)(=O)=O)cc1,611 nM
